{"source": "patent US5985261A", "about": "“Use of thioredoxin-like molecules for induction of MnSOD to treat oxidative damage” (National Jewish Medical and Research Center, priority 1997, dated 1999)", "system": "MnSOD mRNA in A549 cells", "assay": "Effect on MnSOD mRNA induction by thioredoxin in A549 cells (Northern blot)", "format": "cell-based, human", "experimental": "Reduced thioredoxin (recombinant, E. coli; Promega) was prepared by treating 1 mM thioredoxin with 2 mM dithiothreitol (DTT) for 20 min at room temperature followed by removal of excess DTT using a G-25 spin column. A549 cells were grown in F-12K medium with 10% serum. Confluent monolayers were treated with oxidized thioredoxin (3 or 7 μM), with and without the thioredoxin reducing system [thioredoxin reductase (0.1 μM)+NADPH (2 mM)]. Incubations were for 16 hours. Total RNA was isolated from cells by guanidine isothiocyanate lysis and cesium chloride centrifugation of the lysate (147,000× g, 20-25° C.) in an ultracentrifuge (Beckman) by the methods of Sambrook et al., ibid. Total RNA was quantified spectrophotometrically.\nTwenty micrograms of RNA was resolved by electrophoresis in 1% agarose, 2.5 M formaldehyde gel in a buffer containing 20 mM MOPS and 1 mM EDTA (pH 7.4). RNA was transferred to nitrocellulose and blots were prehybridized 2-12 hours in 50% formamide, 0.75 M sodium chloride, 0.075 M sodium citrate (pH 7.0), 5× Denhardt's solution, 50 μg/ml salmon sperm DNA, and 0.1% SDS at 42° C. Blots were hybridized with cDNA for MnSOD labeled to a specific activity of 2-7×10^7 cpm using ^32 P-γ CTP (ICN) in hybridization solution at 42° C. overnight and then were washed in 0.3 M sodium chloride, 0.03 M sodium citrate, 0.1% SDS at 42° C. Autoradiographs were made by exposing blots to x-ray film (Kodak) at -70° C. with intensifying screens. Blots were exposed to phosphor-imager screens (Molecular Dynamics) and densitometry was performed with a Macintosh computer using MD Image Quant Version 3.35.\nTo evaluate the effect of oxidation of TRX-SH2 on MnSOD induction, A549 cells were incubated with diamide (2 mM; 30 min) or CDNB (100 μM; 45 min). After incubation, cells were washed and fresh medium added. The cells next were incubated with oxidized thioredoxin (28 μM; 6 h) and then processed for Northern analysis as described in Example 2.\nA549 cells were incubated with actinomycin D ([…]), a transcriptional inhibitor, or cyclohexamide (10 μg/ml), a translation inhibitor, for 1 hour followed by addition of thioredoxin (28 μM) and further incubation for a period of 16 hours. mRNA was quantified as previously described.", "note": "Starred links: 1 amine or outer side, 2 acyl side, 3 side chain; linkers in the order of their positions; H or OH if unused. Positions of bridges follow the written chain, without caps; N, C: chain ends. Non-standard residues stand in square brackets, D forms with d. Residues, ends and D or L forms follow the SMILES beside them. Chains are numbered I, II in the order given. Actinocin(9to1) = Cc1c2oc3c(C)ccc(C(=O)[*:1])c3nc-2c(C(=O)[*:2])c(N)c1=O; NMeV = CN[C@H](C(=O)O)C(C)C; Sar = CNCC(=O)O"}
{"smiles": "O=[N+]([O-])c1ccc(Cl)c([N+](=O)[O-])c1", "note": "[CDNB]", "values": [{"measurement": "effect on increased expression of MnSOD mRNA by thioredoxin", "setting": "CDNB 100 μM, 45 min, washed, then oxidized thioredoxin 28 μM, 6 h", "result": "prevented increased expression of MnSOD mRNA by thioredoxin"}]}
{"smiles": "C[C@@H]1C[C@@H]([C@H](O)CC2CC(=O)NC(=O)C2)C(=O)[C@@H](C)C1", "note": "[Cycloheximide, cycloheximide]", "values": [{"measurement": "effect on thioredoxin-mediated increase in MnSOD mRNA", "setting": "cyclohexamide 10 μg/ml, 1 hour, then thioredoxin 28 μM, 16 hours", "result": "potentiated the thioredoxin-mediated increase in MnSOD mRNA"}]}
{"smiles": "Cc1c2oc3c(C)ccc(C(=O)N[C@@H]4C(=O)N[C@H](C(C)C)C(=O)N5CCC[C@H]5C(=O)N(C)CC(=O)N(C)[C@@H](C(C)C)C(=O)O[C@@H]4C)c3nc-2c(C(=O)N[C@@H]2C(=O)N[C@H](C(C)C)C(=O)N3CCC[C@H]3C(=O)N(C)CC(=O)N(C)[C@@H](C(C)C)C(=O)O[C@@H]2C)c(N)c1=O", "note": "[actinomycin D] (I: T[dV]P[Sar][NMeV] / II: T[dV]P[Sar][NMeV]; ester I:1-I:C, II:1-II:C; linker I:N-II:N via Actinocin(9to1))", "values": [{"measurement": "effect on production of MnSOD mRNA", "setting": "actinomycin D, 1 hour, then thioredoxin 28 μM, 16 hours", "result": "inhibited"}]}
{"smiles": "CN(C)C(=O)/N=N/C(=O)N(C)C", "note": "[diamide]", "values": [{"measurement": "effect on elevation of MnSOD mRNA by thioredoxin", "setting": "diamide 2 mM, 30 min, washed, then oxidized thioredoxin 28 μM, 6 h", "result": "prevented elevation of MnSOD mRNA by thioredoxin"}]}
